# Assay results reported in patent US8445510B2, “Fused bicyclic kinase inhibitors” (OSI Pharmaceuticals, LLC, priority 2011, dated 2013).
# Key:
# Format in all cases: cell-based
# Karpas-299 cells = assay: Karpas-299 cell proliferation assay (CellTiter-Glo); conditions: Homo sapiens, 72 h; Karpas-299 cell line (NPM-ALK); 3 days incubation; at least duplicate experiments; read-out: Prolif. IC50
# Method: The effect of inhibitors on the proliferation of Karpas-299 cells (DSMZ no. ACC 31) was determined using the following protocol. Karpas-299 cells were plated in 96-well white tissue culture treated plates (Corning 3917) in growth medium (RPMI, 10% FCS) at a density of 5000 cells/well in a total volume of 135 μL and incubated at 37° C., 5% CO2, 95% humidity overnight. The following day, one-tenth volume of a 10× concentration of compounds was added to the wells in an 8-point dilution series. Compounds were serially diluted (1:4) in DMSO from a 10 mM stock solution prior to dilution in growth media to the 10× working concentrations (5% DMSO). Final concentration of DMSO in compound-treated wells was 0.5%. Control wells containing growth media or growth media/0.5% DMSO were included in all test plates. […] Once the compounds were added to the cells, plates were incubated for 3 days at 37° C., 5% CO2 at 95% humidity. After 72 hours, all cells and reagents were equilibrated to room temperature and 15 μL of CellTiter-Glo reagent (Promega # G7573) was added to each well. Plates were shaken on a platform for 10 minutes at room temperature prior to reading luminescence. The value of the signal of the control wells was set as 100% growth and growth inhibition was expressed as percent of control. IC50 values were determined from the percent of control data using a standard four-parameter curve fit equation.
# (§1) The IC50 values of exemplary compounds of the present invention determined in a cell proliferation assay using the Karpas-299 cell line according to the procedures described herein in at least duplicate experiments are abbreviated as follows and are shown in Table 5: A, IC50≦0.05 μM; B, 0.05 μM<IC50≦0.2 μM; C, 0.2 μM<IC50≦1 μM; D, IC50>1 μM; ND, not determined. The Example # of Table 5 corresponds to the compound example number as illustrated in the Examples section.
# The Karpas-299 cell line has a t(2; 5) chromosomal translocation and expresses the NPM-ALK fusion protein, resulting in constitutively active ALK. […] Ther. 6(12):3314-22 (2007)]. With this “ALK-driven” cell line, the cell proliferation IC50 values can thus be used as surrogate for the p-ALK cell mechanistic IC50 values.
# MKN45 cells = assay: MKN45 cell proliferation assay (CellTiter-Glo); conditions: Homo sapiens, MKN-45, 72 h; MKN45 cell line; 3 days incubation; at least duplicate experiments; read-out: Prolif. IC50
# Method: The effect of inhibitors on the proliferation of MKN45 cells was determined using the following protocol. MKN45 cells were plated in Corning 3917 96-well white tissue culture treated plates in growth medium (RPMI, 10% FCS) at a density of 5000 cells/well in a total volume of 135 μL and incubated at 37° C., 5% CO2, 95% humidity overnight. The following day, one-tenth volume of a 10× concentration of compounds was added to the wells in an 8-point dilution series. The dilution series was composed of an initial 1:5 dilution of a 10 mM stock of compound in DMSO, followed by serial 1:4 dilutions in DMSO, then a 1:20 dilution in growth medium prior to the 1:10 dilution into the cell plate. […] The typical dilution range is 10 μM to 0.6 nM. Once the compound was added to the cells, plates were incubated for 3 days at 37° C., 5% CO2 at 95% humidity. On the third day, after allowing all cells and reagents to come to room temperature, 25 μL of CellTiter-Glo reagent (Promega #G7573) was added to the wells. Plates were shaken on a platform for 10 minutes prior to reading luminescence for 0.1 seconds. The signal of the control wells was taken as 100% growth and growth inhibition was expressed as percent of control. IC50 values were determined from the percent of control data using a standard four-parameter model.
# as §1, with “the MKN45” for “the Karpas-299”, “Table 2:” for “Table 5:”, “Table 2” for “Table 5”
# Treatment of this cell line with a selective c-MET inhibitor led to induction of apoptosis and inhibition of proliferation, whereas non-MET-amplified cell lines were not affected [Smolen et al., Proc. Natl. Acad. Sci. USA, 103(7):2316-2321 (2006)]. This cell line is thus “driven” by c-MET, and antiproliferative effects correlate very well with the inhibition of c-MET phosphorylation so that the cell proliferation IC50, values can be used as surrogate for the c-MET cell mechanistic IC50, values. Under the assay conditions described herein, the IC50 values correlate nearly 1:1.
# RON = biological target: T1, RON (Homo sapiens, UniProt Q04912); assay: sfRON cell mechanistic assay (HeLa), phosphorylated RON ELISA; conditions: HeLa cells transfected with sfRON; inhibition of phosphorylated RON; four hours incubation; at least duplicate experiments; read-out: sfRON mech IC50
# T1 sequence (Q04912 913-1400): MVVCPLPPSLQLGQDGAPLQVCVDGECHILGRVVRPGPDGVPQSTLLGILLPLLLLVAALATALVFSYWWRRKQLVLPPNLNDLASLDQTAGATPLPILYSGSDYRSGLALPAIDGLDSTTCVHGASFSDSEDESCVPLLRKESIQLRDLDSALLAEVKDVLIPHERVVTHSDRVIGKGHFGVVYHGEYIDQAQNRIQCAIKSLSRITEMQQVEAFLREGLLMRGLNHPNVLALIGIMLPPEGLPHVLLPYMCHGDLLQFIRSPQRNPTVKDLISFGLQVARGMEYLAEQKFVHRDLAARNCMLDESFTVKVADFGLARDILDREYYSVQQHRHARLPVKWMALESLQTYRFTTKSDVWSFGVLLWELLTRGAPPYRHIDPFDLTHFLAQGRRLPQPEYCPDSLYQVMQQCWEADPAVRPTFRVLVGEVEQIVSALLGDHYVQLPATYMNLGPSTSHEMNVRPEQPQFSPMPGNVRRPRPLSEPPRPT
# Method: The cellular activity of the compounds of the present invention against RON may be determined by the following procedure. HeLa cells were plated in Falcon 3072 96-well plates in growth media (DMEM, 10% FBS, 1% L-glutamine) at a density of 10000 cells/well and incubated at 37° C., 5% CO2 overnight. The following day, cells were transfected with 0.2 μg sfRON-pcDNA plasmid DNA with 0.5 μL Lipofectamine-2000 per well in the presence of 50 μL OPTI-MEM, incubated at 37° C., 5% CO2 overnight. Costar 3915 96-well assay plates were coated with rabbit Anti-RON antibody at 2.0 μg/mL, sealed, and incubated overnight at 4° C. On the third day, coated plates were washed with PBS and blocked with 3% BSA. For the sfRON transfected cells, one-tenth volume of a 10× concentration of compounds was added to the wells in a 6-point dilution series. The dilution series was composed of an initial 1:5 dilution of a 10 mM DMSO stock solution of compound in DMSO, followed by a 1:10 dilution in growth media, for a final DMSO concentration on cells of 0.5%. Control wells were treated with 0.5% DMSO. The typical range of dilution was 10 μM to 3 nM. Once compound was added to the cells, plates were incubated for four hours at 37° C., 5% CO2. Plates were then washed in PBS, and lysed in triton-based lysis buffer. Lysates were transferred to the blocked capture plates. The phosphorylated RON levels were measured by incubating with a Goat polyclonal antibody against phosphorylated RON ([pYpY1238/1239]) followed by an anti-Goat antibody conjugated to HRP. Signal was measured on a Wallac Victor plate reader with luminance. The DMSO signal of the control wells was defined as 100% and the percent of inhibition of phosphorylated RON was expressed as percent of control. IC50 values were determined from the percent of control data using a standard four-parameter model.
# The IC50 values of exemplary compounds of the present invention determined in a sfRON cell mechanistic assay using the HeLa cell line according to the procedures described herein in at least duplicate experiments are abbreviated as follows and are shown in Table 3: A, IC50≦0.2 μM; B, 0.2 μM<IC50≦1.0 μM; C, IC50>1 μM; ND, not determined. The Example # of Table 3 corresponds to the compound example number as illustrated in the Examples section.
Structure (SMILES),IC50 (Karpas-299 cells) [µM],IC50 (MKN45 cells) [µM],IC50 (RON) [µM]
"COc1ccc(F)c(Cl)c1[C@@H](C)c1c[nH]c2ncc(-c3c(C)nn([C@H]4CC[C@H](C(=O)O)CC4)c3C)cc12 [Example 25, trans-4-(4-{3-[(1S)-1-(2-Chloro-3-fluoro-6-methoxyphenyl)ethyl]-1H-pyrrolo[2,3-b]pyridin-5-yl}-3,5-dimethyl-1H-pyrazol-1-yl)cyclohexanecarboxylic acid]",≤ 0.05,–,–
"CCOC(=O)[C@H]1CC[C@H](n2nc(C)c(-c3cnc4[nH]cc([C@H](C)c5c(OC)ccc(F)c5Cl)c4c3)c2C)CC1 [Example 26, Ethyl trans-4-(4-{3-[(1S)-1-(2-chloro-3-fluoro-6-methoxyphenyl)ethyl]-1H-pyrrolo[2,3-b]pyridin-5-yl}-3,5-dimethyl-1H-pyrazol-1-yl)cyclohexanecarboxylate]",≤ 0.05,–,–
"COc1ccc(F)c(Cl)c1[C@@H](C)c1c[nH]c2ncc(-c3cnn(C[C@H](O)CO)c3C(F)(F)F)cc12 [Example 36, (2S)-3-[4-{3-[(1S)-1-(2-Chloro-3-fluoro-6-methoxyphenyl)ethyl]-1H-pyrrolo[2,3-b]pyridin-5-yl}-5-(trifluoromethyl)-1H-pyrazol-1-yl]propane-1,2-diol]",0.2 to 1,0.05 to 0.2,–
"COc1ccc(F)c(Cl)c1[C@@H](C)c1c[nH]c2ncc(-c3cn(C[C@H](O)CO)nc3C(F)(F)F)cc12 [Example 37, (2S)-3-[4-{3-[(1S)-1-(2-Chloro-3-fluoro-6-methoxyphenyl)ethyl]-1H-pyrrolo[2,3-b]pyridin-5-yl}-3-(trifluoromethyl)-1H-pyrazol-1-yl]propane-1,2-diol]",0.2 to 1,0.2 to 1,–
"COc1ccc(F)c(Cl)c1[C@@H](C)c1c[nH]c2ncc(-c3cnn([C@H]4CC[C@H](O)CC4)c3C(F)(F)F)cc12 [Example 40, trans-4-[4-{3-[(1S)-1-(2-Chloro-3-fluoro-6-methoxyphenyl)ethyl]-1H-pyrrolo[2,3-b]pyridin-5-yl}-5-(trifluoromethyl)-1H-pyrazol-1-yl]cyclohexanol]",> 1,0.05 to 0.2,> 1
"COc1ccc(F)c(Cl)c1[C@@H](C)c1c[nH]c2ncc(-c3cnn([C@H]4CC[C@@H](N5CCNCC5)CC4)c3C)cc12 [Example 56, 3-[(1S)-1-(2-Chloro-3-fluoro-6-methoxyphenyl)ethyl]-5-{5-methyl-1-[cis-4-(piperazin-1-yl)cyclohexyl]-1H-pyrazol-4-yl}-1H-pyrrolo[2,3-b]pyridine]",0.05 to 0.2,0.05 to 0.2,> 1
"[2H]c1[nH]c2ncc(-c3cnn([C@H]4CC[C@H](O)CC4)c3C)cc2c1[C@H](C)c1c(OC(F)F)ccc(F)c1Cl [Example 94, trans-4-{-4-[3-{(1S)-1-[2-Chloro-6-(difluoromethoxy)-3-fluorophenyl]ethyl}(2-^2H)-1H-pyrrolo[2,3-b]pyridin-5-yl]-5-methyl-1H-pyrazol-1-yl}cyclohexanol]",≤ 0.05,≤ 0.05,–
"[2H]c1[nH]c2ncc(-c3cnn([C@H]4CC[C@H](O)CC4)c3C)cc2c1[C@@H](C)c1c(OC(F)F)ccc(F)c1Cl [Example 95, trans-4-{-4-[3-{(1R)-1-[2-Chloro-6-(difluoromethoxy)-3-fluorophenyl]-ethyl}(2-^2H)-1H-pyrrolo[2,3-b]pyridin-5-yl]-5-methyl-1H-pyrazol-1-yl}cyclohexanol]",0.2 to 1,0.2 to 1,–
"Cc1c(-c2cnc3[nH]cc([C@@H](C)c4c(OC(F)F)ccc(F)c4Cl)c3c2)cnn1[C@H]1CC[C@H](O)CC1 [Example 98, trans-4-[4-(3-{(1R)-1-[2-Chloro-6-(difluoromethoxy)-3-fluorophenyl]ethyl}-1H-pyrrolo[2,3-b]pyridin-5-yl)-5-methyl-1H-pyrazol-1-yl]cyclohexanol]",–,> 1,–
"Cc1c(-c2cnc3[nH]cc([C@@H](CF)c4c(Cl)ccc(F)c4Cl)c3c2)cnn1[C@H]1CC[C@H](O)CC1 [Example 117, trans-4-(4-{3-[(1R)-1-(2,6-dichloro-3-fluorophenyl)-2-fluoroethyl]-1H-pyrrolo[2,3-b]pyridin-5-yl}-5-methyl-1H-pyrazol-1-yl)cyclohexanol]",> 1,> 1,–
